{"source": "paper PMC9365315", "about": "(ACS chemical neuroscience, 2022)", "key": {"EAE mice": {"tested_on": "EAE mice", "assay": "Mechanical withdrawal thresholds", "assay_type": "in vivo, mouse (C57BL/6, female)", "details": "day 24 post-EAE induction; compound 5 and modafinil 10 mg/kg, Solu-Medrol 50 mg/kg p.o. days 1–10"}, "[1]": {"tested_on": "RAW 264.7 mouse macrophages induced with LPS", "assay": "Cytokine mRNA expression in LPS-induced RAW 264.7 macrophages", "assay_type": "cell-based", "details": "10 and 1 μM, 48 h, preliminary data"}}, "data": [{"smiles": "NC(=O)C[S+]([O-])C(c1ccccc1)c1ccccc1", "note": "(racemic) [(±)-modafinil]", "values": [{"measurement": "Mechanical withdrawal threshold, front left paw (von Frey)", "setting": "EAE mice", "result": "decreased reflex thresholds"}, {"measurement": "mRNA expression levels of TNF-α, IL-1β and IL-4Rα", "setting": "[1]", "result": "minimal ability to modulate"}]}]}
